Key:
Olfr2 [1] = biological target: T1, Olfr2 (Mus musculus, UniProt Q9QWU6); experiment: Intracellular TNF staining in vascular macrophages and blood monocytes (flow cytometry); type: cell-based; design: Olfr2 expression was confirmed at the protein level on F4/80^+ vascular macrophages; from tissue; host or cells: explanted whole aortas, digested aortic cell suspensions (F4/80+ vascular macrophages) and blood monocytes of Apoe-/- C57BL/6J mice; living Apoe-/- mice for the in vivo study; details: octanal
T1 sequence (Q9QWU6 1-327): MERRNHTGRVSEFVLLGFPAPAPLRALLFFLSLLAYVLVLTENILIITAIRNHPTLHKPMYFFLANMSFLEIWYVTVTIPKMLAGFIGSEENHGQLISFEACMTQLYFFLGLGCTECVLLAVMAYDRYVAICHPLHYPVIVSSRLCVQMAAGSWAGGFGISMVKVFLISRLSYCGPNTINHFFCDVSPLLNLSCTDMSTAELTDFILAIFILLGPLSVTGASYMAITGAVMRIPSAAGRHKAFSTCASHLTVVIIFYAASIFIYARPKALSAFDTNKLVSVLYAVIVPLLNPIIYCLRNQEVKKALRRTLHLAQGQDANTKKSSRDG
Description: To assess the functional properties of Olfr2 in monocytes, cells were enriched form Apoe−/− mice blood by the negative selection. Purified monocytes were then incubated as described above. TNF expression (TNF-PE) was evaluate by intracellular staining protocol by flow cytometry. Classical and non-classical monocytes were divided as previously described (Live, CD115+, LyC6+, and LyC6− respectively). […] Data are presented as means±SEM. *p<0.05, **p<0.01, ***p<0.005, ****p<0.001. p calculated by One-Way ANOVA test, Tukey's multiple comparisons test.
Whole aortas and mouse blood leukocytes were incubated in culture medium with Oct, (10 μM), LPS, (500 ng/mL) alone or combined (LPS+Oct) for 12h at 37° C. and 5% CO2. The protein transport inhibitor cocktail 1× (eBioscience) was added for whole 12h in the whole aorta samples and for the last 6 hours in the mouse blood leukocyte samples. […]
Cells were then washed, fixed, permeabilized applying the Intracellular Fixation and Permeabilization Buffer Set (eBioscience), and stained with mouse anti-TNF-PE (eBioscience). Samples were analyzed with LSR-II (BD Biosciences). Data was acquired with FACSDiva software (BD Biosciences) and analyzed with FlowJo software (Treestar Inc).

Olfr2 [2] = experiment: Olfr2 mRNA and protein expression in BMDMs (real time PCR, western blot, flow cytometry); type: cell-based, mouse; details: 12 h
Description: Olfr2 expression in BMDMs was investigated. Briefly, bone marrow cells from Apoe^−/− mice were stimulated with MCSF (20 ng/ml) for 7 d to generate BMDMs, which were left untreated or incubated with the Olfr2 agonist octanal (Oct, 10 μM), LPS, (500 ng/mL), or with both for 12 h.
BMDMs and hMDMs were incubated in culture media for 12 h at 37° C. and 5% CO2 with Oct, (10 μM), LPS (500 ng/mL) alone or combined with Oct (LPS+Oct) and DMSO (0.1%) as a control and lysed with Qiazol (500 μL; Qiagen) Similarly, whole aortas incubated as previously described were transferred into Qiazol (500 μl; Qiagen) and digested with gentleMACS™ Dissociator (Miltenyi).
BMDMs, hMDMs, mouse blood leukocytes and whole mount aortas were incubated in culture medium with Oct, (10 μM), LPS, (500 ng/mL) alone or combined (LPS+Oct) for 12h at 37° C. and 5% CO2. After the incubation aortas were cut into small pieces and digested for cell suspension as previously described^18. […]
For Olfr2 protein detection in BMDMs, cells were incubated in culture medium with Oct, (10 μM), LPS, (500 ng/mL) alone or combined (LPS+Oct) for 12h at 37° C. and 5% CO2. […] Total protein content was quantified using DC Protein Assay (Bio-Rad) and solubilized in a volume ratio of 1:1 with Laemmli Buffer (Bio-Rad). […]

## CCCCCCCC=O [octanal]
Olfr2 [1]
  TNF expression in Ly6C+ and Ly6C− blood monocytes: boosted
Olfr2 [2]; LPS + octanal combined
  Olfr2 mRNA and protein expression in BMDMs: potentiated
Olfr2 [2]; octanal 10 μM
  Olfr2 mRNA and protein expression in BMDMs: enhanced
